Measurements reported in patent US11180504B2 (ORCHID PHARMA LTD., priority 2016, dated 2021).
≈ marks a conversion by molar mass, not a printed value. Read-outs that look alike come from different tables or passages of the source.

Legend:
[1] = tested on: carbapenemase producing K. pneumoniae; assay: MIC by broth micro-dilution (CLSI), carbapenemase producing K. pneumoniae; type: cell-based, Klebsiella pneumoniae
[2] = tested on: methicillin-sensitive Staphylococcus aureus; assay: MIC by broth micro-dilution (CLSI), methicillin-sensitive S. aureus; type: cell-based; settings: MSSA S. aureus ATCC29213
[3] = tested on: carbapenem sensitive Pseudomonas aeruginosa; assay: MIC by broth micro-dilution (CLSI), carbapenem sensitive P. aeruginosa; type: cell-based
[4] = tested on: carbapenem sensitive Escherichia coli; assay: MIC by broth micro-dilution (CLSI), carbapenem sensitive E. coli; type: cell-based
[5] = Klebsiella pneumoniae, ATCCBAA1705, KPC-2 K. pneumoniae ATCC BAA-1705, read-out: MIC
[6] = Staphylococcus aureus, ATCC 29213 / MSSA, read-out: MIC
[7] = Pseudomonas aeruginosa, ATCC27853, Meropenem susceptible P. aeruginosa ATCC27853, read-out: MIC
[8] = Escherichia coli, ATCC25922, ESBL −ve E. coli ATCC25922, read-out: MIC
[9] = KPC-2 K. pneumoniae ATCC BAA-1705
[10] = Meropenem susceptible P. aeruginosa ATCC27853

MIC [1, 5]	MIC [2, 6]	MIC [3, 7]	MIC [4, 8]	MIC [1, 9]	MIC [2]	MIC [3, 10]	MIC ([4]; ESBL −ve E. coli ATCC25922)	Compound
1 µg/mL (≈ 1.77 µM)	2 µg/mL (≈ 3.54 µM)	32 µg/mL (≈ 56.6 µM)	0.125 µg/mL (≈ 0.221 µM)	–	–	–	–	C[C@@H](NC(=O)Cn1cnnn1)[C@H]1C(=O)N2C(C(=O)O)=C(S[C@@H]3CNC(CNC(=O)[C@H]4CSCN4)C3)[C@H](C)[C@H]12 (stereo partly shown) [Example 354]
–	–	–	–	2 µg/mL (≈ 4.31 µM)	16 µg/mL (≈ 34.5 µM)	128 µg/mL (≈ 276 µM)	0.5 µg/mL (≈ 1.08 µM)	C[C@@H](NC(=O)Cn1cnnn1)[C@H]1C(=O)N2C(C(=O)O)=C(SC3COC4(CNC4)C3)[C@H](C)[C@H]12 (single isomer, unassigned) [Example 558]
1 µg/mL (≈ 1.77 µM)	4 µg/mL (≈ 7.1 µM)	2 µg/mL (≈ 3.55 µM)	0.25 µg/mL (≈ 0.444 µM)	–	–	–	–	C[C@@H](NC(=O)Cn1cnnn1)[C@H]1C(=O)N2C(C(=O)O)=C(S[C@@H]3CN[C@H](C(=O)N4CC(N)C(CO)C4)C3)[C@H](C)[C@H]12 (single isomer, unassigned) [Example 586]
1 µg/mL (≈ 1.69 µM)	4 µg/mL (≈ 6.77 µM)	2 µg/mL (≈ 3.39 µM)	0.25 µg/mL (≈ 0.423 µM)	–	–	–	–	C[C@@H](NC(=O)Cn1cnnn1)[C@H]1C(=O)N2C(C(=O)O)=C(S[C@@H]3CN[C@H](C(=O)N4CC[C@@H](NC(=O)CN)C4)C3)[C@H](C)[C@H]12 [Example 398, (4R,5S,6R)-6-((R)-1-(2-(1H-tetrazol-1-yl)acetamido)ethyl)-3-((3S,5S)-5-((R)-3-(2-aminoacetamido)pyrrolidine-1-carbonyl)pyrrolidin-3-ylthio)-4-methyl-7-oxo-1-azabicyclo[3.2.0]hept-2-ene-2-carboxylic acid]
0.5 µg/mL (≈ 0.845 µM)	1 µg/mL (≈ 1.69 µM)	1 µg/mL (≈ 1.69 µM)	0.125 µg/mL (≈ 0.211 µM)	–	–	–	–	C[C@@H](NC(=O)Cn1cnnn1)[C@H]1C(=O)N2C(C(=O)O)=C(S[C@@H]3CN[C@H](C(=O)N4C[C@H](O)[C@H](NC(=N)N)C4)C3)[C@H](C)[C@H]12 [Example 545, (4R,5S,6R)-6-((R)-1-(2-(1H-tetrazol-1-yl)acetamido)ethyl)-3-((3S,5S)-5-((3R,4S)-3-guanidino-4-hydroxypyrrolidine-1-carbonyl)pyrrolidin-3-ylthio)-4-methyl-7-oxo-1-azabicyclo[3.2.0)hept-2-ene-2-carboxylic acid]
4 µg/mL (≈ 7.25 µM)	64 µg/mL (≈ 116 µM)	16 µg/mL (≈ 29 µM)	2 µg/mL (≈ 3.63 µM)	–	–	–	–	CNCC(=O)N[C@H](C)[C@H]1C(=O)N2C(C(=O)O)=C(S[C@@H]3CN[C@H](C(=O)N4CCC(N)(C(N)=O)CC4)C3)[C@H](C)[C@H]12 [Example 277]
2 µg/mL (≈ 3.8 µM)	32 µg/mL (≈ 60.8 µM)	32 µg/mL (≈ 60.8 µM)	1 µg/mL (≈ 1.9 µM)	–	–	–	–	CNCC(=O)N[C@H](C)[C@H]1C(=O)N2C(C(=O)O)=C(S[C@@H]3CN[C@H](CNC(=O)[C@@H]4C[C@H](F)CN4)C3)[C@H](C)[C@H]12 [Example 282]
2 µg/mL (≈ 3.49 µM)	4 µg/mL (≈ 6.97 µM)	2 µg/mL (≈ 3.49 µM)	0.25 µg/mL (≈ 0.436 µM)	–	–	–	–	C[C@@H](NC(=O)Cn1cnnn1)[C@H]1C(=O)N2C(C(=O)O)=C(S[C@@H]3CN[C@H](C(=O)N4CC5(CCNCC5)C4)C3)[C@H](C)[C@H]12 [Example 366]
–	–	–	–	2 µg/mL (≈ 3.63 µM)	8 µg/mL (≈ 14.5 µM)	16 µg/mL (≈ 29 µM)	0.25 µg/mL (≈ 0.453 µM)	C[C@@H](NC(=O)Cn1cnnn1)[C@H]1C(=O)N2C(C(=O)O)=C(S[C@@H]3CN[C@H](C(=O)N4CC(N)C(F)C4)C3)[C@H](C)[C@H]12 (single isomer, unassigned) [Example 479]
2 µg/mL (≈ 3.46 µM)	16 µg/mL (≈ 27.7 µM)	8 µg/mL (≈ 13.8 µM)	0.125 µg/mL (≈ 0.216 µM)	–	–	–	–	C[C@@H](NC(=O)Cn1cnnn1)[C@H]1C(=O)N2C(C(=O)O)=C(S[C@@H]3CN[C@H](C(=O)N4C[C@H](N)C[C@H]4C(=O)O)C3)[C@H](C)[C@H]12 [Example 453, (4R,5S,6R)-6-((R)-1-(2-(1H-tetrazol-1-yl)acetamido)ethyl)-3-((3S,5S)-5-((2S,4R)-4-amino-2-carboxypyrrolidine-1-carbonyl)pyrrolidin-3-ylthio)-4-methyl-7-oxo-1-azabicyclo[3.2.0]hept-2-ene-2-carboxylic acid]
8 µg/mL (≈ 17.4 µM)	2 µg/mL (≈ 4.34 µM)	> 128 µg/mL	2 µg/mL (≈ 4.34 µM)	–	–	–	–	CC(=O)N1C[C@@H](N)C[C@H]1CSC1=C(C(=O)O)N2C(=O)[C@H]([C@@H](C)NC(=O)C(F)F)[C@H]2[C@H]1C [Example 265]
2 µg/mL (≈ 3.08 µM)	4 µg/mL (≈ 6.17 µM)	–	0.25 µg/mL (≈ 0.385 µM)	–	–	4 µg/mL (≈ 6.17 µM)	–	C[C@@H](NC(=O)Cn1cnnn1)[C@H]1C(=O)N2C(C(=O)O)=C(S[C@@H]3CN[C@H](C(=O)N4CCC(C(=O)NCC(O)CN)CC4)C3)[C@H](C)[C@H]12 (single isomer, unassigned) [Example 572]
32 µg/mL (≈ 55.8 µM)	64 µg/mL (≈ 112 µM)	128 µg/mL (≈ 223 µM)	8 µg/mL (≈ 13.9 µM)	–	–	–	–	C[C@@H](NC(=O)Cn1cnnn1)[C@H]1C(=O)N2C(C(=O)O)=C(S[C@@H]3CN[C@H](C(=O)N4C[C@H]5CC[C@@H](C4)[C@H]5N)C3)[C@H](C)[C@H]12 [Example 345, (4R,5S,6R)-6-((R) - 1-(2-(1H-tetrazol-1-yl)acetamido)ethyl)-3-((3S,5S)-5-((1R,5S,8S)-8-amino-3-azabicyclo[3.2.0]octane-3-carbonyl)pyrrolidin-3-ylthio)-4-methyl-7-oxo-1-azabicyclo[3.2.0]hept-2-ene-2-carboxylic acid]
64 µg/mL (≈ 102 µM)	8 µg/mL (≈ 12.8 µM)	> 128 µg/mL	4 µg/mL (≈ 6.39 µM)	–	–	–	–	C[C@@H](NC(=O)Cn1cnnn1)[C@H]1C(=O)N2C(C(=O)O)=C(S[C@@H]3CN[C@H](C(=O)N4CCC(Nc5ncccn5)CC4)C3)[C@H](C)[C@H]12 [Example 370, (4R,5S,6R)-6-((R)-1-(2-(1H-tetrazol-1-yl)acetamido)ethyl)-4-methyl-7-oxo-3-((3S,5S)-5-(4-(pyrimidin-2-ylamino)piperidine-1-carbonyl)pyrrolidin-3-ylthio)-1-azabicyclo[3.2.0]hept-2-ene-2-carboxylic acid]
4 µg/mL (≈ 7.48 µM)	32 µg/mL (≈ 59.8 µM)	32 µg/mL (≈ 59.8 µM)	4 µg/mL (≈ 7.48 µM)	–	–	–	–	C[C@@H](NC(=O)CC1CCCN1)[C@H]1C(=O)N2C(C(=O)O)=C(S[C@@H]3CN[C@H](C(=O)N4CCC(N)C4)C3)[C@H](C)[C@H]12 (stereo in doubt) [Example 509, (4R,5S,6R)-3-((3S,5S)-5-((R)-3-aminopyrrolidine-1-carbonyl)pyrrolidin-3-ylthio)-4-methyl-7-oxo-6-((R)-1-(2-((S)-pyrrolidin-2-yl)acetamido)ethyl)-1-azabicyclo[3.2.0]hept-2-ene-2-carboxylic acid]
2 µg/mL (≈ 3.39 µM)	2 µg/mL (≈ 3.39 µM)	1 µg/mL (≈ 1.69 µM)	0.25 µg/mL (≈ 0.423 µM)	–	–	–	–	C[C@@H](NC(=O)Cn1cnnn1)[C@H]1C(=O)N2C(C(=O)O)=C(S[C@@H]3CN[C@H](C(=O)N4C[C@H](N)[C@H](NC(=N)N)C4)C3)[C@H](C)[C@H]12 [Example 565, (4R,5S,6R)-6-((R)-1-(2-(1H-tetrazol-1-yl)acetamido)ethyl)-3-((3S,5S)-5-((3S,4R)-3-amino-4-guanidinopyrrolidine-1-carbonyl)-pyrrolidin-3-ylthio)-4-methyl-7-oxo-1-azabicyclo[3.2.0]hept-2-ene-2-carboxylic acid]
2 µg/mL (≈ 3.75 µM)	4 µg/mL (≈ 7.5 µM)	4 µg/mL (≈ 7.5 µM)	0.125 µg/mL (≈ 0.234 µM)	–	–	–	–	C[C@@H](NC(=O)Cn1cnnn1)[C@H]1C(=O)N2C(C(=O)O)=C(S[C@@H]3CN[C@H](C(=O)N4CC(C)(N)C4)C3)[C@H](C)[C@H]12 [Example 405, (4R,5S,6R)-6-((R)-1-(2-(1H-tetrazol-1-yl)acetamido)ethyl)-3-((3S,5S)-5-(3-amino-3-methylazetidine-1-carbonyl)pyrrolidin-3-ylthio)-4-methyl-7-oxo-1-azabicyclo[3.2.0]hept-2-ene-2-carboxylic acid]
2 µg/mL (≈ 3.83 µM)	16 µg/mL (≈ 30.6 µM)	8 µg/mL (≈ 15.3 µM)	2 µg/mL (≈ 3.83 µM)	–	–	–	–	C[C@@H](NC(=O)CNC(=N)N)[C@H]1C(=O)N2C(C(=O)O)=C(S[C@@H]3CN[C@H](C(=O)N4CC[C@@H](N)C4)C3)[C@H](C)[C@H]12 [Example 242]
16 µg/mL (≈ 31.4 µM)	> 128 µg/mL	> 128 µg/mL	4 µg/mL (≈ 7.85 µM)	–	–	–	–	CNCC(=O)N[C@H](C)[C@H]1C(=O)N2C(C(=O)O)=C(S[C@@H]3CN[C@H](C(=O)NC4CCOCC4)C3)[C@H](C)[C@H]12 [Example 279]
2 µg/mL (≈ 3.4 µM)	4 µg/mL (≈ 6.81 µM)	2 µg/mL (≈ 3.4 µM)	0.25 µg/mL (≈ 0.425 µM)	–	–	–	–	C[C@@H](NC(=O)Cn1cnnn1)[C@H]1C(=O)N2C(C(=O)O)=C(S[C@@H]3CN[C@H](C(=O)N4CCC5(CCCN5)CC4)C3)[C@H](C)[C@H]12 [Example 352, (4R,5S,6R)-3-((3S,5S)-5-(1,8-diazaspiro[4.5]decane-8-carbonyl)pyrrolidin-3-ylthio)-6-((R)-1-(2-(1H-tetrazol-1-yl)acetamido)ethyl)-4-methyl-7-oxo-1-azabicyclo[3.2.0]hept-2-ene-2-carboxylic acid]
1 µg/mL (≈ 1.69 µM)	1 µg/mL (≈ 1.69 µM)	2 µg/mL (≈ 3.38 µM)	0.25 µg/mL (≈ 0.423 µM)	–	–	–	–	C[C@@H](NC(=O)Cn1cnnn1)[C@H]1C(=O)N2C(C(=O)O)=C(S[C@@H]3CN[C@H](C(=O)N4C[C@@H](O)[C@@H](NC(=N)N)C4)C3)[C@H](C)[C@H]12 [Example 546, (4R,5S,6R)-6-((R)-1-(2-(1H-tetrazol-1-yl)acetamido)ethyl)-3-((3S,5S)-5-((3S,4R)-3-guanidino-4-hydroxypyrrolidine-1-carbonyl)pyrrolidin-3-ylthio)-4-methyl-7-oxo-1-azabicyclo[3.2.0]hept-2-ene-2-carboxylic acid]
2 µg/mL (≈ 3.39 µM)	4 µg/mL (≈ 6.78 µM)	2 µg/mL (≈ 3.39 µM)	0.25 µg/mL (≈ 0.424 µM)	–	–	–	–	C[C@@H](NC(=O)Cn1cnnn1)[C@H]1C(=O)N2C(C(=O)O)=C(S[C@@H]3CN[C@H](C(=O)N4CC5CC(CO)NC5C4)C3)[C@H](C)[C@H]12 (single isomer, unassigned) [Example 551]
